Source: article PMC12311259, “Antifibrotic effects of specific targeting of the 5‐hydroxytryptamine 2B receptor (5‐HT2BR) in murine models and ex vivo models of scleroderma skin” (Arthritis & Rheumatology (Hoboken, N.j.), 2025)

Legend:
[1] = tested on: approximately 200 targets; assay: Eurofins Panlabs Spectrum screen selectivity panel (enzymatic and receptor binding assays); settings: no binding defined as <50% inhibition at 10 μM
Text: (§1) Effects were considered significant if AM1476's mean value was three or more SDs above the vehicle control mean in the agonist assay or three or more SDs below the positive control agonist (5‐nM α‐methylserotonin) mean in the antagonist assay. AM1476 was screened for selectivity against approximately 200 targets using a Eurofins Panlabs Spectrum screen panel including enzymatic and receptor binding assays.

[2] = target: T1, Serotonin (5-Hydroxytryptamine) 5-HT1A (hu) (Homo sapiens, UniProt P08908); assay: Receptor binding, Eurofins Panlabs 271110
T1 construct: Eurofins Panlabs 271110
T1 sequence (P08908 whole entry): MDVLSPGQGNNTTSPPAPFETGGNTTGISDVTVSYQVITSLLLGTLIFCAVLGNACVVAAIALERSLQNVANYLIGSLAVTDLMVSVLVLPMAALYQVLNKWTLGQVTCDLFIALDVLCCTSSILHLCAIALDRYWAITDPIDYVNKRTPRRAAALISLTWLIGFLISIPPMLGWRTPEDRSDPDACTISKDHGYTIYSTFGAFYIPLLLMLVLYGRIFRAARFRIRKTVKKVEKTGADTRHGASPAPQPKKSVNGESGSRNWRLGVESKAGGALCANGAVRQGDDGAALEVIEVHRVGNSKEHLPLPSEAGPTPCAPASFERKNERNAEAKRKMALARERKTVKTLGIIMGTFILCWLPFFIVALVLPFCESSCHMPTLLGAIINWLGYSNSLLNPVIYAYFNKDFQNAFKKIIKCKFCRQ
Text: as §1

[3] = target: T2, Serotonin (5-Hydroxytryptamine) 5-HT6 (hu) (Homo sapiens, UniProt P50406); assay: Receptor binding, Eurofins Panlabs 272200
T2 construct: 318000 (adenylyl cyclase)
T2 sequence (P50406 whole entry): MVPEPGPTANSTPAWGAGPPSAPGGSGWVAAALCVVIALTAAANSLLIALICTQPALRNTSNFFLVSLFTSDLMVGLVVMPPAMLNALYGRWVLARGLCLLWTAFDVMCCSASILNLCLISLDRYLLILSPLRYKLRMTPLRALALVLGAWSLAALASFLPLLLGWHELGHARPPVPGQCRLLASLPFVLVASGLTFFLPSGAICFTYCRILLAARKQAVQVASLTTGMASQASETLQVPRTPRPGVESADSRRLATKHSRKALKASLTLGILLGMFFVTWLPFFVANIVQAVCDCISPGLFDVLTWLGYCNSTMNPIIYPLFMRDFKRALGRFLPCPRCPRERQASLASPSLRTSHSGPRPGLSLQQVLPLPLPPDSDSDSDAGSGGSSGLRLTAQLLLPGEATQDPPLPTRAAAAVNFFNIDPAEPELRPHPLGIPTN
Text: as §1

Adrenergic α1A (hu) = target: T3, Adrenergic α1A (hu) (Homo sapiens, UniProt P35348); assay: Functionality assay, IP1, Eurofins Panlabs 302040; assay type: cell-based
T3 construct: Eurofins Panlabs 302040
T3 sequence (P35348 whole entry): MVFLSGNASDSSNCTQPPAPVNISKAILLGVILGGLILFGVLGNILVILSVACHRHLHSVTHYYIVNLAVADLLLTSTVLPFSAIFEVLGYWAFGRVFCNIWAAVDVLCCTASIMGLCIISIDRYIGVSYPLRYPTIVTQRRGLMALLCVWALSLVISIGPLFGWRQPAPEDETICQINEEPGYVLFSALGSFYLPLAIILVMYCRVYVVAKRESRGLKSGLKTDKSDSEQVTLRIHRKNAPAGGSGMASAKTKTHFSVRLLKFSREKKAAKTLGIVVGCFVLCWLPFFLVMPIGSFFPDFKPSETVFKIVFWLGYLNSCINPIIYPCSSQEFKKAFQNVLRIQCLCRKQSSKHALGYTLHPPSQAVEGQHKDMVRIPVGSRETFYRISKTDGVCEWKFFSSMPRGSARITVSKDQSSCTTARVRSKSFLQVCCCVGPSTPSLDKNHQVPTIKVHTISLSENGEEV
Text: as §1

Adrenergic α1D (hu) = target: T4, Adrenergic α1D (hu) (Homo sapiens, UniProt P25100); assay: Functionality assay, IP1, Eurofins Panlabs 302080; assay type: cell-based
T4 construct: Eurofins Panlabs 302080
T4 sequence (P25100 whole entry): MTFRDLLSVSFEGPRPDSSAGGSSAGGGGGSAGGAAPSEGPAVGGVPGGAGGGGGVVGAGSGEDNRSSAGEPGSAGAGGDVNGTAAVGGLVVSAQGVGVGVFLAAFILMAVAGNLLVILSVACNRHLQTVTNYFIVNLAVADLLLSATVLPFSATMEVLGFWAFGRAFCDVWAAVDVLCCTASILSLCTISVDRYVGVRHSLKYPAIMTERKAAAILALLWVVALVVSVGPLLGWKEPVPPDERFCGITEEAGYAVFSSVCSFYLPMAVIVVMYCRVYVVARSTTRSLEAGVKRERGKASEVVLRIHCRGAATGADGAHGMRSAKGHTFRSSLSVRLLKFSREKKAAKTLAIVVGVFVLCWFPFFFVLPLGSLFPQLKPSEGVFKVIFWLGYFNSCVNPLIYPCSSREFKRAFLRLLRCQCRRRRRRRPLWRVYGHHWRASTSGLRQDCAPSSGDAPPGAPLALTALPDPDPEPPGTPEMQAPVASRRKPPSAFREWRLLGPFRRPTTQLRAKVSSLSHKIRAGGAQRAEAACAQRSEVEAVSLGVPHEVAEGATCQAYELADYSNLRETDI

Adrenergic β1 (hu) = target: T5, Adrenergic β1 (hu) (Homo sapiens, UniProt P08588); assay: Functionality assay, Adenylyl Cyclase, Eurofins Panlabs 302230; assay type: cell-based
T5 construct: Eurofins Panlabs 302230
T5 sequence (P08588 whole entry): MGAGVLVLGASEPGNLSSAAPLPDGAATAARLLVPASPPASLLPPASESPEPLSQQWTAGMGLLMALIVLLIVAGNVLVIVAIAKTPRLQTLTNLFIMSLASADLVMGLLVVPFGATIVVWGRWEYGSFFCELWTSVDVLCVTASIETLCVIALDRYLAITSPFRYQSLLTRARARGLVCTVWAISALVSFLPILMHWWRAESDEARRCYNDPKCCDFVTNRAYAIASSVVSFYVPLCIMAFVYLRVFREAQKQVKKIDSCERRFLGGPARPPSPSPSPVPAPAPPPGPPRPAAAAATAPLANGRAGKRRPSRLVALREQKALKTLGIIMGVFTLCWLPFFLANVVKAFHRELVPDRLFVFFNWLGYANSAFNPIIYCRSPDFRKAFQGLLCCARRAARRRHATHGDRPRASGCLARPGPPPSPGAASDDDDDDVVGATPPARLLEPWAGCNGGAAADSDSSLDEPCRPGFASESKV
Text: as §1

[4] = target: T6, Uptake, Norepinephrine (hu) (Homo sapiens, UniProt P23975); assay: Functionality assay, Uptake, Eurofins Panlabs 302000; assay type: cell-based
T6 construct: Eurofins Panlabs 302000
T6 sequence (P23975 whole entry): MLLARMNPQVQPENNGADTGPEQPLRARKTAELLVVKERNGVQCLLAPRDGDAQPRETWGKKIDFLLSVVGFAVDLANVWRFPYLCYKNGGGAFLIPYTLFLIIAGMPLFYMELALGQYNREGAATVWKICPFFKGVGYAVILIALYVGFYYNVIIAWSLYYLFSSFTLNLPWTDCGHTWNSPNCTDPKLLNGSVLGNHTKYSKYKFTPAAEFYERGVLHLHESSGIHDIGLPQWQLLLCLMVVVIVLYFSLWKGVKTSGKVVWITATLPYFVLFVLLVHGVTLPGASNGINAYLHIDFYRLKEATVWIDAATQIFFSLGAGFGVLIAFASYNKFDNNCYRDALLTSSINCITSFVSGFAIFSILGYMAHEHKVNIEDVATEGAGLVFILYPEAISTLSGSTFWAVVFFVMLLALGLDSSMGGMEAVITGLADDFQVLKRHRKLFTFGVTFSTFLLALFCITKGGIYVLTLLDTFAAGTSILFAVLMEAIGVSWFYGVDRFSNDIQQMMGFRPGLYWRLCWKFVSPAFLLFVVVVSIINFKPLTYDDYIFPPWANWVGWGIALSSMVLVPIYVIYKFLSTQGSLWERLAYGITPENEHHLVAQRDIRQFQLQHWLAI
Text: as §1

[5] = tested on: Bleomycin-induced pulmonary fibrosis; assay: Bleomycin-induced pulmonary fibrosis in mice; assay type: in vivo, mouse
Procedure: Pulmonary fibrosis was induced by a single intratracheal instillation of bleomycin (25 μg in 50 μL of 0.9% NaCl).[12] Treatment was initiated at two weeks after the first injection of bleomycin. AM1476 was administered orally at 1, 3, or 10 mg/kg once daily. Solvent (double‐distilled water) was used as a control, and nintedanib at 30 mg/kg orally every day (qd) was included as a comparator. The outcome was analyzed at two and four weeks after the first injection of bleomycin. Mice injected with 0.9% NaCl, the vehicle of bleomycin, served as nonfibrotic controls. Eight mice per group were analyzed.
Skin samples were fixed in 4% formalin for six hours and embedded in paraffin. Five‐micrometer sections were cut and stained with hematoxylin and eosin (H&E). The dermal thickness was quantified on H&E‐stained sections using images captured with a light microscope (Nikon eclipse 80i) at 100‐fold magnification by manually measuring the distance between the epidermal‐dermal junction and the dermal‐subcutaneous fat junction at four sites per mouse.[15], [16] For lung samples, the whole left lung was fixed in 4% formalin for six hours and embedded in paraffin. Five‐micrometer sections were cut and stained with trichrome and sirius red. Histologic readouts were evaluation of the fibrotic area as the percentage of the total lung area in sirius red–stained sections (two sections per mouse) and quantification of pulmonary changes using the Ashcroft score (four sections per mouse).[17], [18]
The amount of collagen protein in skin and lung samples was determined by hydroxyproline assay.[19], [20] After digestion in 6 M HCl for three hours at 120°C, the pH of the samples was adjusted to a pH range of 6–7 with 6 M NaOH. Afterward, 0.06 M chloramine T was added to each sample and incubated for 20 minutes at room temperature. Next, 3.15 M perchloric acid and 20% p‐dimethylaminobenzaldehyde were added, and samples were incubated for an additional 20 minutes at 60°C. The absorbance was determined at 557 nm with a Spectra MAX 190 microplate spectrophotometer. Absolute values were determined using a standard curved generated with type I collagen (Sigma‐Aldrich).

healthy individuals = assay: Phase 1 clinical trial, safety, tolerability and pharmacokinetic profile (NCT04691115); assay type: in vivo, human; settings: for Any adverse event / Depressed level of consciousness / Dizziness / Gastrointestinal disorders / Headache / Nausea / Nervous system disorders / Presyncope / Serious adverse event / Syncope: fasted, N = 6
Text: These findings prompted us to perform a phase 1 clinical trial investigating safety, tolerability, and the pharmacokinetic profile of AM1476 in healthy individuals (ClinicalTrials.gov identifier NCT04691115). […] An excerpt of the summary of adverse events is found in Supplementary Table S5. […] The anticipated clinical efficacy exposure was well covered by investigated doses.

[6] = cGvHD mice, 28 days repeated oral once daily administration
Procedure: After repeated oral administration for 28 days, whole blood was collected from each treatment group 15 minutes, 30 minutes, and 1, 2, 4, 6, 8, and 24 hours after a final morning dose (two animals were used for each time point), and plasma was separated from blood within 30 minutes.

[7] = all doses (1, 3, 10 mg/kg orally once daily), vs vehicle-treated bleomycin-challenged mice

SMILES: C[C@@H]1CN(C(=N)N)N=C1c1ccc(F)cc1O [AM1476]
- binding to approximately 200 other targets [1]: no binding to the majority of targets
- % Inhibition at 10 µM, 5-HT1A (hu) [2]: 16%
- % Inhibition at 1 µM, 5-HT6 (hu) ([3]; 1 µM (value in brackets)): 51%
- % Inhibition at 10 µM, 5-HT6 (hu) ([3]; 10 µM): 90%
- IC50 (Adrenergic α1A (hu)): 4.34 µM
- agonistic activity, Adrenergic α1A (Adrenergic α1A (hu); at 300 µM): No significant agonistic activity at 300 µM
- IC50 (Adrenergic α1D (hu)): 7.76 µM
- agonistic activity, Adrenergic α1D (Adrenergic α1D (hu); at 30 µM): No significant agonistic activity at 30 µM
- IC50 (Adrenergic β1 (hu)): 32.5 µM
- agonistic activity, Adrenergic β1 (Adrenergic β1 (hu); at 300 µM): No significant agonistic activity at 300 µM
- IC50 [4]: 3.78 µM
- antifibrotic effects relative to comparator, across the different readouts ([5]; AM1476 1, 3, 10 mg/kg orally once daily): comparable to those of nintedanib
- Ashcroft scores [5, 7]: decreases
- collagen-covered area [5, 7]: decreases
- hydroxyproline content [5, 7]: decreases
- Any adverse event (healthy individuals; 375 mg BID): 2 (33.3%) no. of subjects (%)
- Depressed level of consciousness (healthy individuals; 375 mg BID): 0 no. of subjects (%)
- Dizziness (healthy individuals; 375 mg BID): 1 (16.7%) no. of subjects (%)
- Gastrointestinal disorders (healthy individuals; 375 mg BID): 2 (33.3%) no. of subjects (%)
- Headache (healthy individuals; 375 mg BID): 2 (33.3%) no. of subjects (%)
- Nausea (healthy individuals; 375 mg BID): 2 (33.3%) no. of subjects (%)
- Nervous system disorders (healthy individuals; 375 mg BID): 2 (33.3%) no. of subjects (%)
- Presyncope (healthy individuals; 375 mg BID): 0 no. of subjects (%)
- Serious adverse event (healthy individuals; 375 mg BID): 0 no. of subjects (%)
- Syncope (healthy individuals; 375 mg BID): 0 no. of subjects (%)
- Any adverse event (healthy individuals; 500 mg BID): 4 (66.7%) no. of subjects (%)
- Depressed level of consciousness (healthy individuals; 500 mg BID): 0 no. of subjects (%)
- Dizziness (healthy individuals; 500 mg BID): 1 (16.7%) no. of subjects (%)
- Gastrointestinal disorders (healthy individuals; 500 mg BID): 1 (16.7%) no. of subjects (%)
- Headache (healthy individuals; 500 mg BID): 1 (16.7%) no. of subjects (%)
- Nausea (healthy individuals; 500 mg BID): 1 (16.7%) no. of subjects (%)
- Nervous system disorders (healthy individuals; 500 mg BID): 2 (33.3%) no. of subjects (%)
- Presyncope (healthy individuals; 500 mg BID): 0 no. of subjects (%)
- Serious adverse event (healthy individuals; 500 mg BID): 0 no. of subjects (%)
- Syncope (healthy individuals; 500 mg BID): 0 no. of subjects (%)
- serious adverse events (healthy individuals; healthy individuals): no serious adverse events were reported
- severity of adverse events (healthy individuals; healthy individuals): most of the adverse events were mild in severity
- tolerability (healthy individuals; healthy individuals): well tolerated
- time to steady state (healthy individuals; multiple-dose period): by day two
- absorption (healthy individuals; single and multiple oral administration, fasted state): rapidly absorbed
- level of systemic exposure (free plasma concentration) vs IC50 of mouse 5-HT2BR antagonistic activity [6]: exceeded the IC50
